Earlier results as cited in patent publication US7943127B2 (priority 2004, dated 2011).

Conditions: in vivo, iv

## COc1cc(CNC(=O)CCCC/C=C/C(C)C)ccc1O [Capsaicin, (E)-N-((4-Hydroxy-3-methoxyphenyl)-methyl)-8-methyl-6-nonenamide]
  lethal toxic dose: about 0.56 mg/kg
